Earlier results as cited in patent publication EP4763224A1, “ANTICANCER AGENT CONTAINING NKT CELL LIGAND-CONTAINING LIPOSOME COMPOSITION” (RIKEN, priority 2023, dated 2025).

Tested on: NKT cells
Conditions: for activity relative to α-galactosylceramide: Patent Documents 1 to 5 and Non-Patent Document 10

Structure (SMILES): CCCCCCCCCCCCCCCCCCCCCCCCCC(=O)N[C@@H](CO[C@H]1O[C@H](CO)[C@H](O)[C@H](O)[C@H]1O)[C@H](O)[C@H](O)CCCCCCCCCCCCCC [α-Galactosylceramide, reference compound]
- artificial activation of NKT cells (Non-Patent Document 9): strongly induce artificial activation of NKT cells

Structure (SMILES): CCCCCCCCCCCCCCCCCCCCCCCCCC(=O)N[C@@H](CO[C@H]1O[C@H](COC(=O)NO)[C@H](O)[C@H](O)[C@H]1O)[C@H](O)[C@H](O)CCCCCCCCCCCCCC [RCAI-137]
- activity relative to α-galactosylceramide: several tens times higher

Structure (SMILES): CCCCCCCCCCCCCCCCCCCCCCCCCC(=O)N[C@@H](CO[C@H]1O[C@H](COC)[C@H](O)[C@H](O)[C@H]1O)[C@H](O)[C@H](O)CCCCCCCCCCCCCC [RCAI-61]
- activity relative to α-galactosylceramide: several tens times higher

Structure (SMILES): CCCCCCCCCCCCCCCCCCCCCCCCCC(=O)N[C@@H](CO[C@H]1O[C@H](COC(=O)NC)[C@H](O)[C@H](O)[C@H]1O)[C@H](O)[C@H](O)CCCCCCCCCCCCCC [RK-163]
- activity relative to α-galactosylceramide: several tens times higher
